Laboratory results published in US9822144B2, “Benzodiazepine dimers, conjugates thereof, and methods of making and using” (priority 2015, dated 2017).

Legend:
Assay type in all cases: cell-based
[1] = test system: N87 gastric cancer cell line; experiment: Cytotoxic activity of dimers, ATP luminescence or MTS cell proliferation assay; details: N87 gastric cancer cells, 72 h
Experimental: (§1) The cytotoxic activity of dimers of this invention was tested against H226 lung cancer, 786-O renal cancer, N87 gastric cancer, and/or OVCAR3 ovarian cancer cell lines. The ability of dimers to inhibit cell proliferation can be measured by either an ATP luminescence assay or an MTS cell proliferation assay.
(§2) This is a general procedure for an ATP luminescence assay: Cells are seeded at 1×10^3 cells/well in 96-well plates for 3 h for ATP CellTiterGlo™ assays, respectively. Serial dilutions (1:3) of compounds are added to the wells. Plates are allowed to incubate for 72 h. A CellTiterGlo™ cell viability kit from Promega is used to measure ATP content of cells treated with test compounds following manufacturer's instruction. A decrease in the ATP content is a measure of decrease in cellular viability. The EC50 value—the concentration at which an agent reduces cell viability by 50% of the maximum effect—can be calculated using PRISM™ software, version 5.0 (GraphPad Software, La Jolla, Calif., USA).
(§3) The MTS cell proliferation assay was performed as follows: CellTiter 96 Aqueous Non-Radioactive Cell proliferation Kit from Promega (Madison, Wis.) is used to determine the number of viable cells in cell proliferation assay. Tumor cells are plated at certain seeding densities in sterile 384-well black clear bottom Matrix plates at 40 μL per well and incubated overnight at 37° C. in 5% CO2 before assaying. On the next day, one set of cell plates (10 plates) is used to determine time zero cell density, and 3-(4,5-dimethylthiazol-2-yl)-5-(3-carboxymethoxyphenyl)-2-(4-sulfophenyl)-2H-tetrazolium is added at 4 μL/well into 10 plates followed by incubation at 37° C. in 5% CO2 for three hours. This tetrazolium reagent is bioreduced by […] to form a formazan product which is soluble in aqueous solution. Absorbance at 490 nm is measured on an Envision reader (Perkin Elmer, Boston, Mass.). On the same day, compounds are added into remaining cell plates (T72 plates) and incubated at 37° C. in 5% CO2. After 72 hours, 4 μL MTS reagents are then added into those cell plates. The plates are further incubated at 37° C. in 5% CO2 for three hours and the absorbance values at A490 were measured on an Envision reader.

[2] = test system: OVCAR3 ovarian cancer cell line; experiment: as above; details: 72 h
Experimental: as §1, §2, §3

[3] = test system: H226 lung cancer cell line; experiment: as above; details: 72 h
Experimental: as §1, §2, §3

[4] = test system: DMS 79 small-cell lung cancer cell line; experiment: Activity of dimers against small-cell lung cancer cell line (Table IB); details: Homo sapiens, DMS 79 small-cell lung cancer cells
[5] = test system: H187 small-cell lung cancer cell line; experiment: as above; details: Homo sapiens, NCI-H187, H187 small-cell lung cancer cells
[6] = Homo sapiens, OVCAR-3, OVCAR3 ovarian cancer cells
[7] = Homo sapiens, NCI-H226, H226 lung cancer cells

Row | Structure (SMILES) | EC50 [1] | EC50 [2, 6] | EC50 [3, 7] | also measured
1 | COc1cc2c(cc1OCCCOc1cc3c(cc1OC)C(=O)N1Cc4ccccc4C[C@H]1C=N3)N=C[C@@H]1Cc3ccccc3CN1C2=O [IIa-01] | 16 pM | 150 pM |  | 
2 | COc1cc2c(cc1OCCCCCOc1cc3c(cc1OC)C(=O)N1Cc4ccccc4C[C@H]1C=N3)N=C[C@@H]1Cc3ccccc3CN1C2=O [IIa-02] | 49 to 150 pM |  |  | EC50 ([3]; H226 lung cancer cells): 46 to 180 pM; EC50 ([2]; OVCAR3 ovarian cancer cells): 77 to 120 pM
3 | COc1cc2c(cc1OCCCOc1cc3c(cc1OC)C(=O)N1Cc4ccccc4C[C@H]1CN3)N=C[C@@H]1Cc3ccccc3CN1C2=O [IIa-03] | 460 pM |  |  | EC50 ([3]; H226 lung cancer cells): 410 pM; EC50 ([2]; OVCAR3 ovarian cancer cells): 180 pM
4 | COc1cc2c(cc1OCCCOc1cc3c(cc1OC)C(=O)N1Cc4ccccc4C[C@H]1CN3)NC[C@@H]1Cc3ccccc3CN1C2=O [IIa-04] | 5700 pM | 2600 pM | 8000 pM | 
5 | COc1cc2c(cc1OCc1cc(N)cc(COc3cc4c(cc3OC)C(=O)N3Cc5ccccc5C[C@H]3C=N4)c1)N=C[C@@H]1Cc3ccccc3CN1C2=O [IIa-05, (6aS,6a′S)-3,3′-(((5-amino-1,3-phenylene)bis(methylene))bis(oxy))bis(2-methoxy-6a,7-dihydrobenzo[5,6][1,4]diazepino[1,2-b]isoquinolin-14(12H)-one)] | 150 pM | 90 pM | 150 pM | 
6 | COc1cc2c(cc1OCCCCCOc1cc3c(cc1OC)C(=O)N1Cc4cc(N)ccc4C[C@H]1C=N3)N=C[C@@H]1Cc3ccccc3CN1C2=O [IIa-10] | 30 pM | 20 pM | 20 pM | 
7 | COc1cc2c(cc1OCCNCCOc1cc3c(cc1OC)C(=O)N1Cc4ccccc4C[C@H]1C=N3)N=C[C@@H]1Cc3ccccc3CN1C2=O [IIa-16, (6aS,6a′S)-3,3′-((azanediylbis(ethane-2,1-diyl))bis(oxy))bis(2-methoxy-6a,7-dihydrobenzo[5,6][1,4]diazepino[1,2-b]isoquinolin-14(12H)-one)] |  |  | 188 pM | IC50 [4]: 0.006 nM; IC50 [5]: 0.005 nM
8 | COc1cc2c(cc1OCC(N)COc1cc3c(cc1OC)C(=O)N1Cc4ccccc4C[C@H]1C=N3)N=C[C@@H]1Cc3ccccc3CN1C2=O [IIa-18] |  |  |  | EC50 ([3]; H226 lung cancer cells): 3200 pM
9 | COc1cc2c(cc1OCCNCCOc1cc3c(cc1OC)C(=O)N1Cc4ccccc4C[C@H]1CN3)N=C[C@@H]1Cc3ccccc3CN1C2=O [IIa-20] | 1300 pM |  |  | 
10 | COc1cc2c(cc1OCc1cccc(COc3cc4c(cc3OC)C(=O)N3Cc5ccccc5C[C@H]3C=N4)c1)N=C[C@@H]1Cc3ccccc3CN1C2=O [IIa-21] | 20 pM |  |  | 
11 | COc1cc2c(cc1OCc1cc(COc3cc4c(cc3OC)C(=O)N3Cc5ccccc5C[C@H]3C=N4)cc(N=[N+]=[N-])c1)N=C[C@@H]1Cc3ccccc3CN1C2=O [IIa-22] | 50 pM |  |  | 
12 | COc1cc2c(cc1OCCCCCOc1cc3c(cc1OC)C(=O)N1Cc4ccccc4C[C@H]1C=N3)N=C[C@@H]1CCCN1C2=O [IIb-01] | 330 pM | 220 pM | 440 pM | 
13 | COc1ccc2c(c1)CN1C(=O)c3cc(OC)c(OCCCOc4cc5c(cc4OC)C(=O)N4C=C(c6ccc(N)cc6)C[C@H]4C=N5)cc3N=C[C@@H]1C2 [IIb-03] | 110 pM | 330 pM | 150 pM | IC50 [4]: 0.003 nM; IC50 [5]: 0.002 nM
14 | COc1cc2c(cc1OCCCCCOc1cc3c(cc1OC)C(=O)N1c4ccncc4C[C@H]1C=N3)N=C[C@@H]1Cc3ccccc3CN1C2=O [IIc-01] | 280 pM |  |  | 
